According to ChEMBL document CHEMBL3880390, “Agents for preventing and treating disorders involving modulation of the RYR receptors” (2014):
Calls of active or inactive are those of the source. The rule behind the calls is not given here.

Tests used:
[1] = biological target: T1, hERG (KCNH2) (Homo sapiens, UniProt Q12809); test: Inhibition of human ERG expressed in HEK293 cells at 0.01 uM after 5 mins at -80 mV holding potential by patch clamp assay; assay type: cell-based; conditions: HEK293 cells expressing human ERG
T1 sequence (Q12809 whole entry): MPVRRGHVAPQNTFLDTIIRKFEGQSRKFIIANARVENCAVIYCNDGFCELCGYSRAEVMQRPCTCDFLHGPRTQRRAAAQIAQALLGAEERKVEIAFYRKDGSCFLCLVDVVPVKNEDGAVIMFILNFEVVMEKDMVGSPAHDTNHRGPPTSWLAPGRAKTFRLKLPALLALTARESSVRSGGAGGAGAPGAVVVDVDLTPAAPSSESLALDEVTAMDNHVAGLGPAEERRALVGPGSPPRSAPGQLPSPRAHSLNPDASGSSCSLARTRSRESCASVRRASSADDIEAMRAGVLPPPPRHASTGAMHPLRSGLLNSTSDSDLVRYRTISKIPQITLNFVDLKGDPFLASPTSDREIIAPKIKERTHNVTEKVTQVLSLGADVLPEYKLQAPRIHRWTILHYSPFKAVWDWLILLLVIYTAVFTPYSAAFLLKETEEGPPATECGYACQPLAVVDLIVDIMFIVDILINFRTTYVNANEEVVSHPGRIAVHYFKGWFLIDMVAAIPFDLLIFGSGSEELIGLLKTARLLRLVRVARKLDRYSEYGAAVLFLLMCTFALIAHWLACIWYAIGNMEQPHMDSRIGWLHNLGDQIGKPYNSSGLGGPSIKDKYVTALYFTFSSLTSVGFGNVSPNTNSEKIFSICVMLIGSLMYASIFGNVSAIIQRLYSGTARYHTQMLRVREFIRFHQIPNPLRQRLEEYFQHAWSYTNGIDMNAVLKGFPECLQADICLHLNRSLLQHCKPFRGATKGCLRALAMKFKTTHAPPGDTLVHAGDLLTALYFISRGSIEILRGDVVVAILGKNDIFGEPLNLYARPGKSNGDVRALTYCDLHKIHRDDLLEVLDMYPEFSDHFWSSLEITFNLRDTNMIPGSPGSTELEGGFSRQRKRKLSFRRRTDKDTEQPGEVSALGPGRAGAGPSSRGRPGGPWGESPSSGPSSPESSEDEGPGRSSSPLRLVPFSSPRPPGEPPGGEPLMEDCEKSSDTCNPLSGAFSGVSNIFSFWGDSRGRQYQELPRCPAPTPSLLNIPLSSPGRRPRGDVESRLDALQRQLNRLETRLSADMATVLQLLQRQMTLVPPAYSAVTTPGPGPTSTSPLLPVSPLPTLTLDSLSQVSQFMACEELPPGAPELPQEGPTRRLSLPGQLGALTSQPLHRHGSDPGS

[2] = biological target: T1, hERG (KCNH2); test: Inhibition of human ERG expressed in HEK293 cells at 0.1 uM after 5 mins at -80 mV holding potential by patch clamp assay; assay type: cell-based; conditions: HEK293 cells expressing human ERG
[3] = biological target: T1, hERG (KCNH2); test: Inhibition of human ERG expressed in HEK293 cells at 1 uM after 5 mins at -80 mV holding potential by patch clamp assay; assay type: cell-based; conditions: HEK293 cells expressing human ERG
[4] = biological target: T1, hERG (KCNH2); test: Inhibition of human ERG expressed in HEK293 cells at 10 uM after 5 mins at -80 mV holding potential by patch clamp assay; assay type: cell-based; conditions: HEK293 cells expressing human ERG
[5] = biological target: L-type calcium channel (Mus musculus, UniProt Q01815+Q02789+Q99246+Q9JIS7); test: Inhibition of L-type Ca2+ channel in mouse cardiomyocytes at holding potential of -80 or -40 mV by whole cell patch clamp assay; assay type: cell-based
[6] = organism: Mus musculus; test: Reduction in RyR2 channel opening probability in haploinsufficient FKBP12.6+/- mouse in the presence of […]; assay type: functional
[7] = biological target: Ryanodine receptor 1 (Mus musculus) (UniProt E9PZQ0); test: Normalization of RYR1 in myocardial infarction-induced heart failure mouse soleus muscle assessed as decrease in average channel close dwell time; assay type: tissue-based
[8] = biological target: Ryanodine receptor 1 (Mus musculus) (UniProt E9PZQ0); test: Induction of normalization of RYR1 function in mdx dystrophin deficient mouse soleus muscle assessed as decrease in average channel close dwell time at 1 uM; assay type: tissue-based
[9] = biological target: Ryanodine receptor 1 (Mus musculus) (UniProt E9PZQ0); test: Induction of calstabin-1 binding to RYR1 in myocardial infarction-induced heart failure wild type mouse soleus muscle at 0.5 mg/kg/day dosed via implantable osmotic minipumps; assay type: organism-based
[10] = test system: Mus musculus; test: Reduction in PKA-phosphorylation of RyR2 in myocardial infarction-induced heart failure mouse model at 0.5 mg/kg/hr after 28 days post myocardial infarction; assay type: functional, organism-based
[11] = organism: Mus musculus; test: Antiarrhythmic activity in haploinsufficient FKBP12.6 expressing mouse assessed as reduction in sustained ventricular tachycardia at 1 uM under testing exercise followed by epinephrine injection relative to control; assay type: functional
[12] = Cardiotoxicity in FKBP12.6 deficient mouse implanted with osmotic mini-pump assessed as reduction in resting heart rate in at 0.5 mg/kg/hr for 7 hrs; assay type: toxicity, organism-based; conditions: in vivo
[13] = test system: Mus musculus; test: Improvement in soleus muscle fatigability in myocardial infarction-induced heart failure mouse model at 0.5 mg/kg/day relative to control; assay type: functional, organism-based
[14] = biological target: Ryanodine receptor 1 (Mus musculus) (UniProt E9PZQ0); test: Induction of calstabin-1 binding to RYR1 in myocardial infarction-induced heart failure calsiabin2-/- mouse soleus muscle at 0.5 mg/kg/day dosed via implantable osmotic minipumps; assay type: organism-based
[15] = test system: Mus musculus; test: Antiarrhythmic activity in haploinsufficient FKBP12.6 expressing mouse assessed as plasma concentration showing prevention of cardiac arrhythmias dosed via osmotic mini-pump under testing exercise followed by epinephrine injection relative to control; assay type: functional, organism-based
[16] = biological target: Ryanodine receptor 1 (Mus musculus) (UniProt E9PZQ0); test: Induction of calstabin-1 binding to PKA-phosphorylated RyR1 in mouse skeletal muscle at >50 nM
[17] = biological target: Ryanodine receptor 1 (Mus musculus) (UniProt E9PZQ0); test: Induction of calstabin-2 binding to RyR1 in mouse skeletal muscle at >50 nM
[18] = biological target: Ryanodine receptor 1 (Mus musculus) (UniProt E9PZQ0); test: Induction of normalization of RYR1 function in mdx dystrophin deficient mouse soleus muscle assessed as increase in average channel open dwell time at 1 uM; assay type: tissue-based
[19] = biological target: Ryanodine receptor 1 (Mus musculus) (UniProt E9PZQ0); test: Induction of calstabin-2 binding to PKA-phosphorylated RyR1 in mouse skeletal muscle at >50 nM
[20] = biological target: Ryanodine receptor 1 (Mus musculus) (UniProt E9PZQ0); test: Inhibition of PKA-induced RyR1 phosphorylation in myocardial infarction-induced heart failure mouse soleus muscle at 0.5 mg/kg/day dosed via implantable osmotic minipumps; assay type: organism-based
[21] = Cardiotoxicity in haploinsufficient FKBP12.6 expressing mouse assessed as reduction in non-sustained ventricular tachycardia at 1 uM under testing exercise followed by epinephrine injection relative to control; assay type: toxicity; conditions: in vivo
[22] = biological target: Ryanodine receptor 1 (Mus musculus) (UniProt E9PZQ0); test: Induction of normalization of RYR1 function in mdx dystrophin deficient mouse soleus muscle assessed as increase in channel open probability at 1 uM; assay type: tissue-based
[23] = biological target: Ryanodine receptor 1 (Mus musculus) (UniProt E9PZQ0); test: Induction of calstabin-1 binding to RyR1 in mouse skeletal muscle at >50 nM
[24] = test system: Mus musculus; test: Improvement in soleus muscle fatigability in myocardial infarction-induced heart failure calstabin2-deficient knockout mouse at 0.5 mg/kg/day relative to control; assay type: functional, organism-based
[25] = Cardiotoxicity in haploinsufficient FKBP12.6 expressing mouse implanted with osmotic mini-pump assessed as reduction in resting heart rate in at 0.5 mg/kg/hr for 7 hrs; assay type: toxicity, organism-based; conditions: in vivo
[26] = test system: Mus musculus; test: Antiarrhythmic activity in haploinsufficient FKBP12.6 expressing mouse assessed as plasma concentration showing prevention of sudden cardiac death dosed via osmotic mini-pump under testing exercise followed by epinephrine injection relative to control; assay type: functional, organism-based
[27] = biological target: Ryanodine receptor 1 (Mus musculus) (UniProt E9PZQ0); test: Normalization of RYR1 in myocardial infarction-induced heart failure mouse soleus muscle assessed as increase in average channel open dwell time; assay type: tissue-based
[28] = biological target: T2, Ryanodine receptor 2 (Homo sapiens, UniProt Q92736); test: Induction of FKBP12.6 re-binding to PKA-phosphorylated-RyR2 (unknown origin) after 30 mins in presence of [35S]-FKBP12.6 by liquid scintillation counting
[29] = biological target: T2, Ryanodine receptor 2; test: Induction of normalization of single channel closed state of PKA phosphorylated RyR2 P2328S mutant (unknown origin) assessed as channel open probability level at 0.1 umol/L (reference value: 14.4%)
[30] = organism: Mus musculus; test: Antiarrhythmic activity in haploinsufficient FKBP12.6 expressing mouse assessed as reduction in sustained ventricular tachycardia at 0.2 to 1 uM under testing exercise followed by epinephrine injection relative to control; assay type: functional
[31] = biological target: T2, Ryanodine receptor 2; test: Induction of calstabin-2 binding to RyR2 P2328S mutant (unknown origin) at 0.1 umol/L
[32] = biological target: T2, Ryanodine receptor 2; test: Induction of FKBP12.6 re-binding to PKA-phosphorylated-RyR2 (unknown origin) at 10 to 1000 nM after 30 mins in presence of [35S]-FKBP12.6 by liquid scintillation counting
[33] = organism: Mus musculus; test: Induction of cardiac function improvement in myocardial infarction-induced acute heart failure mouse model subjected to permanent ligation of left anterior descending coronary artery assessed as increase in fractional shortening at plasma concentration of 100 to 200 nM after 2 weeks post myocardial infarction by echocardiography; assay type: functional
[34] = organism: Mus musculus; test: Induction of cardiac function improvement in myocardial infarction-induced acute heart failure mouse model subjected to permanent ligation of left anterior descending coronary artery assessed as increase in cardiac contractility at plasma concentration 200 nM after 7 days post myocardial infarction; assay type: functional
[35] = biological target: T2, Ryanodine receptor 2; test: Induction of normalization of single channel closed state of wild type PKA phosphorylated RyR2 (unknown origin) assessed as channel open probability at 0.1 umol/L relative to control
[36] = organism: Mus musculus; test: Induction of cardiac function improvement in myocardial infarction-induced acute heart failure mouse model at plasma concentration 200 nM after 7 days post myocardial infarction; assay type: functional

Compound: COc1ccc2c(c1)CN(C(=O)C(=O)O)CCS2(=O)=O
- inhibition at 5 min, 0.01 µM [1]: 1.6%
- inhibition at 5 min, 0.1 µM [2]: 2.5%
- inhibition at 5 min, 1 µM [3]: 4.6%
- inhibition at 5 min, 10 µM [4]: 7.4%

Compound: COC(=O)C1=C(C)NC(C)=C(C(=O)OC)C1c1ccccc1[N+](=O)[O-] [NIFEDIPINE]
- inhibition (INH) [5]: Active

Compound: O=C(N1CCCCC1)N1CCSc2ccccc2C1
- inhibition at 5 min, 0.01 µM [1]: 2.5%
- inhibition at 5 min, 0.1 µM [2]: 4.2%
- inhibition at 5 min, 1 µM [3]: 5.7%
- inhibition at 5 min, 10 µM [4]: 47.3%

Compound: COc1ccc2c(c1)CN(C(=O)CCN1CCC(Cc3ccccc3)CC1)CCS2.Cl
- Activity [6]: Active
- TIME [7]: 0.000435 to 0.000441 h
- TIME [8]: 0.000287 h
- Activity [9]: Active
- Activity [10]: Active
- Activity [11]: Active
- Activity [12]: Non-Toxic
- Activity [13]: Active
- Activity [14]: Active
- Cp [15]: 1 µM
- Activity [16]: Active
- Activity [17]: Active
- TIME [18]: 4.44e-07 h
- Activity [19]: Active
- inhibition [20]: Active
- Activity [21]: Non-Toxic
- Activity [22]: Active
- Activity [23]: Active
- Activity [24]: Active
- Activity [25]: Non-Toxic
- Cp [26]: 1 µM
- TIME [27]: 4.17e-07 to 5e-07 h

Compound: COc1ccc2c(c1)CN(C)CCS2
- inhibition at 5 min, 0.01 µM [1]: 2.9%
- inhibition at 5 min, 0.1 µM [2]: 4%
- inhibition at 5 min, 1 µM [3]: 6.2%
- inhibition at 5 min, 10 µM [4]: 32.1%

Compound: COc1ccc2c(c1)CN([P@](=O)(OC)c1ccccc1)CCS2
- EC50 [28]: 182 nM

Compound: O=C(NO)N1CCSc2ccccc2C1
- inhibition at 5 min, 0.01 µM [1]: 1.9%
- inhibition at 5 min, 0.1 µM [2]: 4.8%
- inhibition at 5 min, 1 µM [3]: 1.3%
- inhibition at 5 min, 10 µM [4]: 9.5%

Compound: COc1ccc2c(c1)CN(S(=O)(=O)Nc1cccnc1)CCS2
- EC50 [28]: 77 nM

Compound: COc1ccc2c(c1)CN(C(=O)C(=O)O)CCS2
- Activity [29]: 0.3%
- Activity [30]: Active
- Activity [31]: Active
- Activity [32]: Active
- Cp [15]: 0.02 to 1 µM
- Activity [33]: Active
- Activity [34]: Active
- Activity [35]: Active
- Cp [26]: 0.02 to 1 µM
- Activity [36]: Active
